Reference: publication PMC9942793 (Proceedings of the National Academy of Sciences of the …, 2023)

Molecular target: T1, SLO3 (Homo sapiens, UniProt A8MYU2)
T1 sequence (A8MYU2 1-1149): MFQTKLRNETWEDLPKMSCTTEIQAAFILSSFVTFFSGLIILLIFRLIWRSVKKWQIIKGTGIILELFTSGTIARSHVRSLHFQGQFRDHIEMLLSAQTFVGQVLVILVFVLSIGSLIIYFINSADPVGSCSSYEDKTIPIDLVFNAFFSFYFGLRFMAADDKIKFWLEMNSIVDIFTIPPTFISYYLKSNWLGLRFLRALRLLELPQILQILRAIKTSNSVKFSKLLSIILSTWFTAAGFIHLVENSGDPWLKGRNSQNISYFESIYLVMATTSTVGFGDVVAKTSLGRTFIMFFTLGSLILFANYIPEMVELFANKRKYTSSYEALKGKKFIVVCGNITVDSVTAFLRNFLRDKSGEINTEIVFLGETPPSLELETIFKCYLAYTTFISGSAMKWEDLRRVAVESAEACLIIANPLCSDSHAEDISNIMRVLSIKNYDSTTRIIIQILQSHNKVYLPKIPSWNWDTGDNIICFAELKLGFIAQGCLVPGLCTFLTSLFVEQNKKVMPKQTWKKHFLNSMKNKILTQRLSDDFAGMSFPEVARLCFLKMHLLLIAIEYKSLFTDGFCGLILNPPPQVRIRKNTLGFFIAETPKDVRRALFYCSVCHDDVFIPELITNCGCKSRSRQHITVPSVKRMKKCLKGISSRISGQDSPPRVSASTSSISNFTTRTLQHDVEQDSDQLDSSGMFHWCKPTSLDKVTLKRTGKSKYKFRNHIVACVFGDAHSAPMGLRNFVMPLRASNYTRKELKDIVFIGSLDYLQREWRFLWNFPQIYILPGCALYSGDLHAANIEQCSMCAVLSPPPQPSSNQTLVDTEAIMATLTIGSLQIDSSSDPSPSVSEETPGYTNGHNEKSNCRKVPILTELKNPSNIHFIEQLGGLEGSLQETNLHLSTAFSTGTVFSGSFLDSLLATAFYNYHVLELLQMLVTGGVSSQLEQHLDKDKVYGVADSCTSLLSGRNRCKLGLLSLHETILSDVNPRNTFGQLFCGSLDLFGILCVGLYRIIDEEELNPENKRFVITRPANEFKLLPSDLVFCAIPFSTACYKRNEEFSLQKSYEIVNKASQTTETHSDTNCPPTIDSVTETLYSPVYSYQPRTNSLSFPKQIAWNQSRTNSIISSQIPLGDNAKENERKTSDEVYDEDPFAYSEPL
T1 sequence (Q8N7C0 24-313 partner): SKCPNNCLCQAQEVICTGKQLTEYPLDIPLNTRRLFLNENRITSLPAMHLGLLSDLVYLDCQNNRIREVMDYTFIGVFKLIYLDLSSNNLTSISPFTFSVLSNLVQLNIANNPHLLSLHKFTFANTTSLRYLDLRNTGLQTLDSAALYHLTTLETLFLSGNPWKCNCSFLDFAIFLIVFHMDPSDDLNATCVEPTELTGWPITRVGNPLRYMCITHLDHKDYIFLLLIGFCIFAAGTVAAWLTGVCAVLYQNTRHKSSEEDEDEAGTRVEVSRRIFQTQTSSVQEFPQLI
Assay: Tl+ flux assay
Format: cell-based

FC(F)(F)c1cc(NC(=S)Nc2ccc(Br)cc2-c2nnn[nH]2)cc(C(F)(F)F)c1 [NS11021]
Tl+ flux assay (activation; 100 μM used in the screen): found that the SLO1 activator NS11021 also activates SLO3 at high concentrations (Fig. 1B)
